Here are results for 29 compounds from US7595398B2, “N-(5-membered aromatic ring)-amido anti-viral compounds” (SmithKline Beecham Corporation, priority 2005, dated 2009).

The test deals with HCV replicon I389luc-ubi-neo/NS3-3′/ET in ET (Huh-lucubineo-ET) cells; screening for HCV RNA dependent RNA polymerase. Description: Replicon Assay (luciferase, ET cell line Huh-lucubineo-ET). The settings on record: Hepatitis C virus; inhibition of replication relative to no compound control; test concentration of 10 μM according to the fitted equation; luciferase 48-72 hours. In kind it is cell-based. The protocol: A cell line, ET (Huh-lucubineo-ET) was used for screening of compounds of the present invention for HCV RNA dependent RNA polymerase. The ET cell line was stably transfected with RNA transcripts harboring a I389luc-ubi-neo/NS3-3′/ET; replicon with firefly luciferase-ubiquitin-neomycin phosphotransferase fusion protein and EMCV-IRES driven NS3-5B polyprotein containing the cell culture adaptive mutations (E1202G; T12801; K1846T) (Krieger at al, 2001 and unpublished). The ET cells were grown in DMEM, supplemented with 10% fetal calf serum, 2 mM Glutamine, Penicillin (100 IU/mL)/Streptomycin (100 μg/mL), 1× nonessential amino acids, and 250 μg/mL G418 (“Geneticin”). They were all available through Life Technologies (Bethesda, Md.). The cells were plated at 0.5-1.0×10^4 cells/well in the 96 well plates and incubated for 24 hrs before adding nucleoside analogs. […] Luciferase activity were measured 48-72 hours later by adding a lysis buffer and the substrate (Catalog number Glo-lysis buffer E2661 and Bright-Glo luciferase system E2620 Promega, Madison, Wis.). Cells should not be too confluent during the assay. Percent inhibition of replication was plotted relative to no compound control. Under the same condition, cytotoxicity of the compounds was determined using cell proliferation reagent, WST-1(Roche, Germany). The compounds showing antiviral activities, but no significant cytotoxicities were chosen to determine IC50 and TC50. For these determinations, 10 concentrations of each compound were used. Concentrations for test compounds typically span a range of 500 fold. IC50 and TC50 values were calculated by fitting % inhibition at each concentration (I) to the following equation: % inhibition=100%/[1+10^(log IC50−log (I))*b] where b is Hill's coefficient.
With `O=C(Nc1nc(-c2ccc(C3CCCCC3)cc2)cs1)[C@@H]1CCCN1C(=O)OCc1ccccc1` [Compound 5024, 2-[4-(4-Cyclohexyl-phenyl)-thiazol-2-ylcarbamoyl]-pyrrolidine-1-carboxylic acid benzyl ester], the inhibition at 10 µM is 11%.

The compound `Cc1ccc(Cc2cnc(NC(=O)[C@@H]3CCCN3C(=O)OCc3ccccc3)s2)cc1Cl` [Compound 5025, 2-[5-(3-Chloro-4-methyl-benzyl)-thiazol-2-ylcarbamoyl]-pyrrolidine-1-carboxylic acid benzyl ester] displayed an inhibition at 10 µM of 2.86%.

On to `O=C(Nc1cccc(-c2csc(NC(=O)C3CCCN3C(=O)OCc3ccccc3)n2)c1)C1CCCC1` (centres unmarked) [Compound 5026, 2-{4-[3-(Cyclopentanecarbonyl-amino)-phenyl]-thiazol-2-ylcarbamoyl}-pyrrolidine-1-carboxylic acid benzyl ester], for which the inhibition at 10 µM amounted to 100%.

Compound `O=C(Nc1nc(-c2ccc(NS(=O)(=O)c3ccccc3)cc2)cs1)C1CCCN1C(=O)OCc1ccccc1` (centres unmarked) [Compound 5027, 2-[4-(4-Benzenesulfonylamino-phenyl)-thiazol-2-ylcarbamoyl]-pyrrolidine-1-carboxylic acid benzyl ester] yielded an inhibition at 10 µM of 99.7%.

With `O=C(Nc1nc(C2(c3ccccc3)CCCC2)cs1)[C@@H]1CCCN1C(=O)OCc1ccccc1` [Compound 5028, 2-[4-(1-Phenyl-cyclopentyl)-thiazol-2-ylcarbamoyl]-pyrrolidine-1-carboxylic acid benzyl ester], the inhibition at 10 µM is 98.9%.

`O=C(Nc1ncc(Cc2cccc(Cl)c2)s1)[C@@H]1CCCN1C(=O)OCc1ccccc1` [Compound 5029, 2-[5-(3-Chloro-benzyl)-thiazol-2-ylcarbamoyl]-pyrrolidine-1-carboxylic acid benzyl ester] yielded an inhibition at 10 µM of 0.52%.

`O=C(Nc1ncc(Cc2ccc(Cl)cc2Cl)s1)[C@@H]1CCCN1C(=O)OCc1ccccc1` [Compound 5031, 2-[5-(2,4-Dichloro-benzyl)-thiazol-2-ylcarbamoyl]-pyrrolidine-1-carboxylic acid benzyl ester] showed an inhibition at 10 µM of 2.85%.

As to `Cc1sc2nc(SCc3csc(NC(=O)[C@@H]4CCCN4C(=O)OCc4ccccc4)n3)n(C)c(=O)c2c1C` [Compound 5032, 2-[4-(3,5,6-Trimethyl-4-oxo-3,4-dihydro-thieno[2,3-d]pyrimidin-2-ylsulfanylmethyl)-thiazol-2-ylcarbamoyl]-pyrrolidine-1-carboxylic acid benzyl ester], the inhibition at 10 µM is 38.6%.

For the compound `Cc1ccc(S(=O)(=O)Cc2csc(NC(=O)[C@@H]3CCCN3C(=O)OCc3ccccc3)n2)cc1` [Compound 5033, 2-[4-(Toluene-4-sulfonylmethyl)-thiazol-2-ylcarbamoyl]-pyrrolidine-1-carboxylic acid benzyl ester], at 10 µM the inhibition was 2.51%.

Regarding `O=C(Nc1nc(-c2ccc(Cl)c(Cl)c2)cs1)[C@@H]1CCCN1C(=O)OCc1ccccc1` [Compound 5034, 2-[4-(3,4-Dichloro-phenyl)-thiazol-2-ylcarbamoyl]-pyrrolidine-1-carboxylic acid benzyl ester], the inhibition at 10 µM turned out to be 100%.

For `O=C(Nc1nc2cc3ccccc3cc2s1)[C@@H]1CCCN1C(=O)OCc1ccccc1` [Compound 5035, 2-(Naphtho[2,3-d]thiazol-2-ylcarbamoyl)-pyrrolidine-1-carboxylic acid benzyl ester], 10 µM produced 100% inhibition.

With `O=C(Nc1ccc(-c2csc(NC(=O)[C@@H]3CCCN3C(=O)OCc3ccccc3)n2)cc1)c1ccc(Cl)cc1` [Compound 5036, 2-{4-[4-(4-Chloro-benzoylamino)-phenyl]-thiazol-2-ylcarbamoyl}-pyrrolidine-1-carboxylic acid benzyl ester], the inhibition at 10 µM was 100%.

Regarding `O=C(Nc1ccc(-c2csc(NC(=O)C3CCCN3C(=O)OCc3ccccc3)n2)cc1)c1ccccc1` (centres unmarked) [Compound 5037, 2-[4-(4-Benzoylamino-phenyl)-thiazol-2-ylcarbamoyl]-pyrrolidine-1-carboxylic acid benzyl ester], the inhibition at 10 µM was found to be 100%.

As to `O=C(Nc1cccc(-c2csc(NC(=O)[C@@H]3CCCN3C(=O)OCc3ccccc3)n2)c1)c1ccc(Cl)cc1` [Compound 5038, 2-{4-[3-(4-Chloro-benzoylamino)-phenyl]-thiazol-2-ylcarbamoyl}-pyrrolidine-1-carboxylic acid benzyl ester], the inhibition at 10 µM is 100%.

On to `O=C(Nc1cccc(-c2csc(NC(=O)C3CCCN3C(=O)OCc3ccccc3)n2)c1)C1CC1` (centres unmarked) [Compound 5039, 2-{4-[3-(Cyclopropanecarbonyl-amino)-phenyl]-thiazol-2-ylcarbamoyl}-pyrrolidine-1-carboxylic acid benzyl ester], for which at 10 µM the inhibition was 99.6%.

As to `Cc1ccc(Cc2cnc(NC(=O)[C@@H]3CCCN3C(=O)OCc3ccccc3)s2)cc1` [Compound 5040, 2-[5-(4-Methyl-benzyl)-thiazol-2-ylcarbamoyl]-pyrrolidine-1-carboxylic acid benzyl ester], 10 µM produced 22.5% inhibition.

Compound `O=C(Nc1nc(-c2ccc([N+](=O)[O-])cc2)cs1)[C@@H]1CCCN1C(=O)OCc1ccccc1` [Compound 5041, 2-[4-(4-Nitro-phenyl)-thiazol-2-ylcarbamoyl]-pyrrolidine-1-carboxylic acid benzyl ester] yielded an inhibition at 10 µM of 76%.

Regarding `Cc1ccc(C)c(-c2cnc(NC(=O)[C@@H]3CCCN3C(=O)OCc3ccccc3)s2)c1` [Compound 5042, 2-[5-(2,5-Dimethyl-phenyl)-thiazol-2-ylcarbamoyl]-pyrrolidine-1-carboxylic acid benzyl ester], the inhibition at 10 µM stood at 90.3%.

In the case of `COc1ccc2cc(-c3csc(NC(=O)[C@@H]4CCCN4C(=O)OCc4ccccc4)n3)c(=O)oc2c1` [Compound 5043, 2-[4-(7-Methoxy-2-oxo-2H-chromen-3-yl)-thiazol-2-ylcarbamoyl]-pyrrolidine-1-carboxylic acid benzyl ester], the inhibition at 10 µM was determined as 3.61%.

As to `O=C1CC(c2csc(NC(=O)[C@@H]3CCCN3C(=O)OCc3ccccc3)n2)C2(CCCCC2)O1` (some centres unmarked) [Compound 5044, 2-[4-(2-Oxo-1-oxa-spiro[4.5]dec-4-yl)-thiazol-2-ylcarbamoyl]-pyrrolidine-1-carboxylic acid benzyl ester], the inhibition at 10 µM stood at 16.9%.

`O=C(Nc1nc(COc2ccc(Cl)cc2)cs1)[C@@H]1CCCN1C(=O)OCc1ccccc1` [Compound 5045, 2-[4-(4-Chloro-phenoxymethyl)-thiazol-2-ylcarbamoyl]-pyrrolidine-1-carboxylic acid benzyl ester] displayed an inhibition at 10 µM of 6.85%.

Turning to `O=C(Nc1ncc(Cc2cccc([N+](=O)[O-])c2)s1)[C@@H]1CCCN1C(=O)OCc1ccccc1` [Compound 5047, 2-[5-(3-Nitrobenzyl)-thiazol-2-ylcarbamoyl]-pyrrolidine-1-carboxylic acid benzyl ester], the inhibition at 10 µM turned out to be 37.7%.

On to `CC(=O)Nc1ccc(-c2csc(NC(=O)[C@@H]3CCCN3C(=O)OCc3ccccc3)n2)cc1` [Compound 5048, 2-[4-(4-Acetylamino-phenyl)-thiazol-2-ylcarbamoyl]-pyrrolidine-1-carboxylic acid benzyl ester], for which the inhibition at 10 µM came out at 100%.

Take `CNc1ccc(-c2csc(NC(=O)C3CCCN3C(=O)OCc3ccccc3)n2)cc1` (centres unmarked) [Compound 5049, 2-[4-(4-Methylamino-phenyl)-thiazol-2-ylcarbamoyl]-pyrrolidine-1-carboxylic acid benzyl ester]: the inhibition at 10 µM worked out at 95.6%.

The compound `Nc1ccc(-c2csc(NC(=O)C3CCCN3C(=O)OCc3ccccc3)n2)cc1` (centres unmarked) [Compound 5050, 2-[4-(4-Amino-phenyl)-thiazol-2-ylcarbamoyl]-pyrrolidine-1-carboxylic acid benzyl ester] registered an inhibition at 10 µM of 99.8%.

In turn, `O=C(Nc1nc(C2CCOCC2)cs1)[C@@H]1CCCN1C(=O)OCc1ccccc1` [Compound 5051, 2-[4-(Tetrahydro-pyran-4-yl)-thiazol-2-ylcarbamoyl]-pyrrolidine-1-carboxylic acid benzyl ester] registered an inhibition at 10 µM of 3.42%.

Regarding `O=C(Nc1ncc(Cc2ccccc2Cl)s1)[C@@H]1CCCN1C(=O)OCc1ccccc1` [Compound 5052, 2-[5-(2-Chloro-benzyl)-thiazol-2-ylcarbamoyl]-pyrrolidine-1-carboxylic acid benzyl ester], the inhibition at 10 µM worked out at 1.2%.

`CC(=O)c1ccc(Cc2cnc(NC(=O)[C@@H]3CCCN3C(=O)OCc3ccccc3)s2)cc1` [Compound 5053, 2-[5-(4-Acetyl-benzyl)-thiazol-2-ylcarbamoyl]-pyrrolidine-1-carboxylic acid benzyl ester] returned an inhibition at 10 µM of 4.55%.

In the case of `COc1ccc(-c2csc(NC(=O)[C@@H]3CCCN3C(=O)OCc3ccccc3)n2)cc1OC` [Compound 5054, 2-[4-(3,4-Dimethoxy-phenyl)-thiazol-2-ylcarbamoyl]-pyrrolidine-1-carboxylic acid benzyl ester], the inhibition at 10 µM came out at 99.3%.
